The values that follow come from PubChem BioAssay (NCI).

SMILES strings stand for the structures. “And” between values parts separate entries of the source, which are not always exact repeats. Equal entries are not always repeated.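 Following 48 hours of exposure in 96-well plates, responses at five concentrations were used to interpolate endpoints linearly. Here, GI50 denotes the concentration required for 50% inhibition of growth. TGI: concentration producing complete growth inhibition.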

Common to all, as to experiment: NCI anticancer screen, dose series, 48 h
Assay [1] relates to OVCAR-8 ovarian.
Assay [2] deals with NCI-H226 lung.
Assay [3] relates to MALME-3M melanoma.
The test system of assay [4] is EKVX NSCLC.
The test system of assay [5] is U251 CNS.
For assay [6], the system named is MCF7 breast.
Assay [7] deals with MDA-MB-435.
The test system of assay [8] is ACHN renal.
In assay [9] the test system is HS 578T breast.
Assay [10] has as its system A549 NSCLC.

In the case of `CC1SC(c2cccc(Cl)c2)N(NC(=O)C(O)c2ccccc2)C1=O` (stereo not given), the GI50 in [1], in [2], in [3], in assay [4], in [5] and in [6] was > 100 µM each time. For the same compound, the GI50 in assay [7] is > 100 µM; in [8], > 100 µM; in assay [9], > 100 µM; in [10], 86.7 µM. Moreover, the TGI in assay [1], in assay [2], in assay [3], in assay [4], in [5] and in assay [6] was > 100 µM in each case. The TGI in assay [7], in assay [8], in [9] and in [10] was > 100 µM throughout.

Turning to `CCC(=O)OCN1C(=O)C=CC1=O`, the TGI was 35 µM and 37 µM in assay [1]; 30.1 µM and > 63.3 µM in [2]; 31.5 µM and 27.6 µM in assay [3]; 32.4 µM and 42.5 µM in assay [4]; 31.1 µM and 31.6 µM in assay [5]; 40.9 µM and 39.7 µM in [6]. Also, the TGI is 32.8 µM and 28.5 µM in [7]; 28.5 µM and 19.7 µM in assay [8]; 73.3 µM and 36.5 µM in assay [9]; 39.9 µM and 34.9 µM in assay [10]. Moreover, the GI50 in [2] is 15.2 µM; in assay [3], 16 µM; in [4], 16.8 µM; in assay [7] it was 17.4 µM; in assay [8], 15.1 µM; in assay [9], 27.8 µM.

For the compound `CCCC(CCC)C(=O)O`, the GI50 in [1] is > 100 µM; in assay [2], > 20000 µM; in assay [3], > 100 µM; in assay [4], > 20000 µM; in assay [5], > 100 µM; in assay [6], > 100 µM. In addition, the GI50 in assay [7], in assay [8] and in assay [10] was > 100 µM each time. In addition, the TGI in assay [1], in assay [2], in assay [3], in assay [4], in assay [5] and in assay [6] was > 20000 µM each time. Also, the TGI in assay [7] was > 20000 µM; in assay [8] it was > 100 µM and 17400 µM; in assay [9] it was > 20000 µM; in assay [10], > 20000 µM.

`CC1(C)N=C(N)N=C(N)N1c1ccc(CCC(=O)Nc2cccc(S(=O)(=O)F)c2)cc1`: the GI50 was 6.46 µM in assay [1]; > 100 µM in assay [2]; 21.3 µM in assay [3]; > 100 µM in assay [4]; 4.98 µM in assay [5]; 6.48 µM in assay [6]. Also, the GI50 was 4.9 µM in assay [7], 52.5 µM in [8], > 100 µM in [9] and 3.32 µM in [10]. For the same compound, the TGI in assay [1], in assay [2], in assay [3], in assay [4], in [5] and in assay [6] was > 100 µM in each case. Also, the TGI in [7], in assay [8], in [9] and in assay [10] was > 100 µM throughout.

`N#CC(CC(=O)O)=C(c1ccccc1)c1ccccc1`: the TGI in assay [1], in assay [2], in assay [3], in [4], in assay [5] and in assay [6] was > 100 µM each time. Moreover, the TGI in [7], in [8], in assay [9] and in assay [10] was > 100 µM in each case.

Regarding `CC(C)Cn1cnc2c(SCc3ccccn3)nc(N)nc21`, the TGI in assay [1], in [2], in [3], in assay [4], in [5] and in [6] was > 100 µM in each case. In addition, the TGI in assay [7], in [8], in [9] and in assay [10] was > 100 µM each time.

Consider `CN1CCN(Cc2ccc(NC(=O)c3cncc(C#Cc4ncc5ccccn45)c3)cc2C(F)(F)F)CC1`, for which the GI50 in [1] is 2.21 µM; in assay [2], 0.451 µM; in assay [3], 0.772 µM; in assay [4], 1.3 µM; in assay [5] it was 2.89 µM; in assay [6], 0.738 µM. Besides, the GI50 is 2.01 µM in assay [7], 0.967 µM in assay [8], 0.688 µM in [9] and 1.35 µM in assay [10]. The TGI in [1] is 5.42 µM; in assay [2], 3.91 µM; in assay [3], 3.6 µM; in assay [4] it was 5.54 µM; in assay [5], 6.39 µM; in [6], 3.07 µM. Further, the TGI was 5.23 µM in [7], 3.8 µM in [8], 3.61 µM in [9] and 5.48 µM in assay [10].
